Measurements taken from US8039504B2 (priority 2003, dated 2011).
Where two headings read alike, the source gives them in different places.

Legend:
Experiment in all cases: microbe, parasite or virus in culture
Format in all cases: cell-based
Vaccinia virus (NYCBH) = conditions: Orthopoxvirus vaccinia, Vero, 72 h
camelpox = conditions: read-out: Camelpox EC50
[1] = tested on: monkeypox virus (Zaire (V79-1-005-scab)); conditions: read-out: Monkeypox EC50
wild type cowpox virus = conditions: read-out: Cowpox EC50
[2] = read-out: EC50 of reference standards in vaccinia CPE assay

Row | Compound | EC50 (Vaccinia virus (NYCBH); read-out: Vaccinia EC50) [nM] | EC50 (camelpox) [nM] | EC50 [1] [nM] | EC50 (wild type cowpox virus) [nM] | EC50 (Vaccinia virus (NYCBH); [2]) [nM]
1 | O=C(NN1C(=O)[C@@H]2C3C=CC([C@@H]2C1=O)C31CC1)c1cccc(Br)c1 [Example 23, 3-Bromo-N-(1′,3,3′a,4′,7,7′a-hexahydro-1′,3′,dioxospiro [cyclopropane-1,8′-[4,7]methano[2H]isoindol]-2′-yl)-benzamide] | < 500 |  |  |  | 
2 | O=C(NN1C(=O)[C@@H]2C3CCC(C4CC43)[C@@H]2C1=O)c1ccc(Br)cc1 (some centres unmarked) [Example 15, 4-Bromo-N-(3,3a,4,4a,5,5a,6,6a-octahydro-1,3-dioxo-4,6-ethanocycloprop[f]isoindol-2(1H)-yl)-benzamide] | < 500 | < 500 | < 500 | < 500 | 
3 | N#Cc1ccc(C(=O)NN2C(=O)[C@@H]3C4C=CC(C5CC54)[C@@H]3C2=O)cc1 (some centres unmarked) [Example 20, 4-Cyano-N-(3,3a,4,4a,5,5a,6,6a,- octahydro-1,3-dioxo-4,6-ethenocycloprop[f]isoindol-2(1H)-yl)-benzamide] | < 500 |  |  | < 500 | 
4 | O=C(NN1C(=O)[C@@H]2C3C=CC(CC3)[C@@H]2C1=O)c1ccc(Br)cc1 [Example 18, 4-Bromo-N-bicyclo[2.2.2]oct-5-ene-2,3-dicarboximido-benzamide] | < 500 |  |  | < 500 | 
5 | Cc1nc(C)c(C(=O)NN2C(=O)[C@@H]3C4C=CC(C5CC54)[C@@H]3C2=O)s1 (some centres unmarked) [Example 41, 2,4-Dimethyl-N-(3,3a,4,4a,5,5a,6,6a-octahydro-1,3-dioxo-4,6-ethenocycloprop[f]isoindol-2(1H)-yl)-thiazole-5-carboxamide] | < 500 |  |  | 1000 to 5000 | 
6 | O=C(Cc1ccccc1)NN1C(=O)[C@@H]2C3C=CC(C4CC43)[C@@H]2C1=O (some centres unmarked) [Example 25, N-(3,3a,4,4a,5,5a,6,6a,- octahydro-1,3-dioxo-4,6-ethenocycloprop[f]isoindol-2(1H)-yl)-benzeneacetamide] | 500 to 1000 |  |  | > 5000 | 
7 | O=C(NN1C(=O)[C@@H]2C3C=CC(C4CC43)[C@@H]2C1=O)c1cccc(Br)c1 (some centres unmarked) [Example 4, 3-Bromo-N-(3,3a,4,4a,5,5a,6,6a,- octahydro-1,3-dioxo-4,6-ethenocycloprop[f]isoindol-2(1H)-yl)-benzamide] | < 500 |  |  | 1000 to 5000 | 
8 | Cc1ccc(C(=O)NN2C(=O)[C@@H]3C4C=CC(C5CC54)[C@@H]3C2=O)cc1 (some centres unmarked) [Example 22, 4-Methyl-N-(3,3a,4,4a,5,5a,6,6a,- octahydro-1,3-dioxo-4,6-ethanocycloprop[f]isoindol-2(1H)-yl)-benzamide] | < 500 |  |  | 1000 to 5000 | 
9 | O=C(NN1C(=O)[C@@H]2C3C=CC(C4CC43)[C@@H]2C1=O)c1ccccn1 (some centres unmarked) [Example 10, N-(3,3a,4,4a,5,5a,6,6a,- octahydro-1,3-dioxo-4,6-ethenocycloprop[f]isoindol-2(1H)-yl)-2-pyridinecarboxamide] | > 5000 |  |  | > 5000 | 
10 | O=C(NN1C(=O)[C@@H]2C3C=CC(C4CC43)[C@@H]2C1=O)c1cccnc1 (some centres unmarked) [Example 9, N-(3,3a,4,4a,5,5a,6,6a,- octahydro-1,3-dioxo-4,6-ethenocycloprop[f]isoindol-2(1H)-yl)-3-pyridinecarboxamide] | < 500 |  |  | > 5000 | 
11 | O=C1[C@@H]2C3C=CC(C4CC43)[C@@H]2C(=O)N1NC(=O)C12CC3CC(CC(C3)C1)C2 (some centres unmarked) [Example 24, N-(3,3a,4,4a,5,5a,6,6a,- octahydro-1,3-dioxo-4,6-ethenocycloprop[f]isoindol-2(1H)-yl)-tricyclo[3.3.1.13.7] decane-1-carboxamide] | < 500 | < 500 | < 500 | 500 to 1000 | 
12 | COc1ccc(C(=O)NN2C(=O)[C@@H]3C4C=CC(C5CC54)[C@@H]3C2=O)cc1 (some centres unmarked) [Example 11, 4-Methoxy-N-(3,3a,4,4a,5,5a,6,6a,- octahydro-1,3-dioxo-4,6-ethenocycloprop[f]isoindol-2(1H)-yl)-benzamide] | 1000 to 5000 |  |  | > 5000 | 
13 | O=C(NN1C(=O)[C@@H]2C3C=CC(C4CC43)[C@@H]2C1=O)c1ccccc1Br (some centres unmarked) [Example 6, 2-Bromo-N-(3,3a,4,4a,5,5a,6,6a,- octahydro-1,3-dioxo-4,6-ethenocycloprop[f]isoindol-2(1H)-yl)-benzamide] | 500 to 1000 |  |  | > 5000 | 
14 | Nc1ccn(C[C@@H](CO)OCP(=O)(O)O)c(=O)n1 [CDV, (S)-1-(3-hydroxy-2-phosphonylmethoxypropyl)cytosine, reference compound] |  |  |  |  | 84000 ± 15000
15 | O=C(O)CP(=O)(O)O [PAA, phosphonoacetic acid, reference compound] |  |  |  |  | 985000 ± 85000
16 | O=C(NN1C(=O)[C@@H]2C3C=CC(C3)[C@@H]2C1=O)c1ccc(Br)cc1 [Example 26, 4-Bromo-N-(1,3,3a,4,7,7a-hexahydro-1,3,-dioxo-4,7-methano-2H-isoindol-2-yl)-benzamide] | < 500 |  |  |  | 
17 | O=C(NN1C(=O)[C@@H]2C3C=CC(C4CC43)[C@@H]2C1=O)c1ccc([N+](=O)[O-])cc1 (some centres unmarked) [Example 12, 4-Nitro-N-(3,3a,4,4a,5,5a,6,6a,- octahydro-1,3-dioxo-4,6-ethenocycloprop[f]isoindol-2(1H)-yl)-benzamide] | < 500 |  |  | < 500 | 
18 | O=C(NN1C(=O)[C@@H]2C3C=CC(C4CC43)[C@@H]2C1=O)c1cccc(F)c1 (some centres unmarked) [Example 14, 3-Fluoro-N-(3,3a,4,4a,5,5a,6,6a,- octahydro-1,3-dioxo-4,6-ethenocycloprop[f]isoindol-2(1H)-yl)-benzamide] | < 500 |  |  | 1000 to 5000 | 
19 | O=C(NN1C(=O)[C@@H]2C3C=CC(C4CC43)[C@@H]2C1=O)c1ccc(Br)cc1 (some centres unmarked) [Example 3, 4-Bromo-N-(3,3a,4,4a,5,5a,6,6a,- octahydro-1,3-dioxo-4,6-ethenocycloprop[f]isoindol-2(1H)-yl)-benzamide] | < 500 | < 500 | < 500 | 500 to 1000 | 
20 | O=C(NN1C(=O)[C@@H]2C3C=CC(C4CC43)[C@@H]2C1=O)c1ccc(F)cc1 (some centres unmarked) [Example 13, 4-Fluoro-N-(3,3a,4,4a,5,5a,6,6a,- octahydro-1,3-dioxo-4,6-ethenocycloprop[f]isoindol-2(1H)-yl)-benzamide] | < 500 |  |  | 500 to 1000 | 
21 | O=C(NN1C(=O)[C@@H]2C3CCC([C@H]4C[C@@H]34)[C@@H]2C1=O)c1ccc(C(F)(F)F)cc1 [Example 21, 4-Trifluoromethyl-N-(3,3a,4,4a,5,5a,6,6a,- octahydro-1,3-dioxo-4,6-ethanocycloprop[f]isoindol-2(1H)-yl)-benzamide] | < 500 |  |  | < 500 | 
22 | O=C(NN1C(=O)[C@@H]2C3CCC(CC3)[C@@H]2C1=O)c1ccc(C(F)(F)F)cc1 [Example 29, 4-Trifluoromethyl-N-bicyclo [2.2.2]octane-2,3-dicarboximido-benzamide] | < 500 |  |  | < 500 | 
23 | O=C(NN1C(=O)[C@@H]2C3C=CC(C4CC43)[C@@H]2C1=O)c1ccc(Cl)cc1 (some centres unmarked) [Example 8, 4-Chloro-N-(3,3a,4,4a,5,5a,6,6a,- octahydro-1,3-dioxo-4,6-ethenocycloprop[f]isoindol-2(1H)-yl)-benzamide] | < 500 |  |  | 500 to 1000 | 
24 | O=C(NN1C(=O)[C@@H]2C3C=CC(C4CC43)[C@@H]2C1=O)c1ccccc1Cl (some centres unmarked) [Example 7, 2-Chloro-N-(3,3a,4,4a,5,5a,6,6a,- octahydro-1,3-dioxo-4,6-ethenocycloprop[f]isoindol-2(1H)-yl)-benzamide] | < 500 |  |  |  | 
25 | O=C(NN1C(=O)[C@@H]2C3CCC(CC3)[C@@H]2C1=O)c1ccc(Br)cc1 [Example 19, 4-Bromo-N-bicyclo[2.2.2]octane-2,3-dicarboximido-benzamide] | < 500 |  |  | < 500 | 
26 | O=C(NN1C(=O)C2CCCCC2C1=O)c1ccc(Br)cc1 (centres unmarked) [Example 17, 4-Bromo-N-(octahydro-1,3-dioxo-2H-isoindol-2-yl)-benzamide] | < 500 |  |  | 1000 to 5000 | 
27 | O=C(NN1C(=O)[C@@H]2C3C=CC(C4CC43)[C@@H]2C1=O)c1ccncc1 (some centres unmarked) [Example 2, N-(3,3a,4,4a,5,5a,6,6a,- octahydro-1,3-dioxo-4,6-ethenocycloprop[f]isoindol-2(1H)-yl)-4-pyridinecarboxamide] | < 500 | < 500 | < 500 | 1000 to 5000 | 
28 | O=C(NN1C(=O)[C@@H]2C3C=CC(C3)[C@@H]2C1=O)c1ccc(Cl)cc1Cl [Example 27, 2,4-Dichloro-N-(1,3,3a,4,7,7a-hexahydro-1,3,-dioxo-4,7-methano-2H-isoindol-2-yl)-benzamide] | 500 to 1000 |  |  |  | 
29 | O=C(NN1C(=O)[C@@H]2C3C=CC(CC3)[C@@H]2C1=O)c1ccc(C(F)(F)F)cc1 [Example 28, 4-Trifluoromethyl-N-bicylo [2.2.2]oct-5-ene-2,3-dicarboximido-benzamide] | < 500 |  |  | < 500 | 
30 | O=C(NN1C(=O)[C@@H]2C3C=CC(C4CC43)[C@@H]2C1=O)c1cccc(Cl)c1 (some centres unmarked) [Example 5, 3-Chloro-N-(3,3a,4,4a, 5,5a,6,6a,- octahydro-1,3-dioxo-4,6-ethenocycloprop[f]isoindol-2(1H)-yl)-benzamide] | 500 to 1000 |  |  | 500 to 1000 | 
